Results: ChEMBL document CHEMBL3085760, “Novel polyamine analogues: from substrates towards potential inhibitors of monoamine oxidases” (Eur J Med Chem, 2013)

How the values were obtained:
[1] = target: T1, Amine oxidase [flavin-containing] B (Homo sapiens, UniProt P27338); test: Ratio of residual Vmax to Km for recombinant human MAO-B expressed in baculovirus infected BT1 cells assessed as residual activity using benzylamine as substrate at 20 uM preincubated for 30 mins by Amplex Red assay
T1 sequence (P27338 whole entry): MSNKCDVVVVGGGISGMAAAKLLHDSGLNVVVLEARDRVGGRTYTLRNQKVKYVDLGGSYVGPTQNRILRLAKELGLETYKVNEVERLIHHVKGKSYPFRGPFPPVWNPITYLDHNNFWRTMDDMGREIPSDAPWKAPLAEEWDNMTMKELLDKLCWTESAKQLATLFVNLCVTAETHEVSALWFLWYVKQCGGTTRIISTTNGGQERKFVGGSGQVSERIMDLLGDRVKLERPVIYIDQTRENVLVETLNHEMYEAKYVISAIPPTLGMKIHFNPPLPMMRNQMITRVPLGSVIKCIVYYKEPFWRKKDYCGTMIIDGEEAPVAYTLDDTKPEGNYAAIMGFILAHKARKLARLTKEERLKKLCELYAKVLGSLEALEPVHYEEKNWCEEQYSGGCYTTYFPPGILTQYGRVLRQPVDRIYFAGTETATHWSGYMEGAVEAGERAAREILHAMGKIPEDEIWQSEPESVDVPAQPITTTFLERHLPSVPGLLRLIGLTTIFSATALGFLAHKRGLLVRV

[2] = target: T2, Amine oxidase [flavin-containing] A (Homo sapiens, UniProt P21397); test: Ratio of residual Vmax to Km for recombinant human MAO-A expressed in baculovirus infected BT1 cells assessed as residual activity using benzylamine as substrate at 20 uM preincubated for 30 mins by Amplex Red assay
T2 sequence (P21397 whole entry): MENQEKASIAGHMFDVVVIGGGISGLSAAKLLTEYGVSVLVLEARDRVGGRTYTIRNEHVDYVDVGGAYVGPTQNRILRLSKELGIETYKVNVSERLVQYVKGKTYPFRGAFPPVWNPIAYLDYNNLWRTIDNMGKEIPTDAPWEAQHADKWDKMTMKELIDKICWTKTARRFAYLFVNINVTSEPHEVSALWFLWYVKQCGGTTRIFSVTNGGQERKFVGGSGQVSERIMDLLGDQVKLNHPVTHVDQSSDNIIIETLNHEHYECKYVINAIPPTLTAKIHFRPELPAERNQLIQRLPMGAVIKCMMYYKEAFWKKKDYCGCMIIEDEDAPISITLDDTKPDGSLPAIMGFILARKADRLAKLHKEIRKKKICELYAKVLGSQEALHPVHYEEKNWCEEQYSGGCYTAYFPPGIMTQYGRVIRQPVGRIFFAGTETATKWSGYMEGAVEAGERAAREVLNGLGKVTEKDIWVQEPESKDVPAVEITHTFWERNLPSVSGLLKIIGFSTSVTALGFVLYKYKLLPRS

[3] = target: T1, Amine oxidase [flavin-containing] B; test: Mixed type inhibition of recombinant human MAO-B expressed in baculovirus infected BT1 cells using benzylamine as substrate at 200 uM preincubated for 30 mins by Lineweaver-Burk plot analysis
[4] = target: T1, Amine oxidase [flavin-containing] B; test: Reversible inhibition of recombinant human MAO-B expressed in baculovirus infected BT1 cells using benzylamine as substrate at 200 uM preincubated for 30 mins by Lineweaver-Burk plot analysis
[5] = target: T2, Amine oxidase [flavin-containing] A; test: Reversible inhibition of recombinant human MAO-A expressed in baculovirus infected BT1 cells using p-tyramine as substrate by Lineweaver-Burk plot analysis
[6] = target: T2, Amine oxidase [flavin-containing] A; test: Mixed type inhibition of recombinant human MAO-A expressed in baculovirus infected BT1 cells using p-tyramine as substrate by Lineweaver-Burk plot analysis
[7] = target: T1, Amine oxidase [flavin-containing] B; test: Ratio of relative Vmax to Km for recombinant human MAO-B expressed in baculovirus infected BT1 cells assessed as hydrogen peroxide generation rate using benzylamine as substrate at 200 uM preincubated for 30 mins by Amplex Red assay
[8] = target: T2, Amine oxidase [flavin-containing] A; test: Activity at recombinant human MAO-A expressed in baculovirus infected BT1 cells assessed as hydrogen peroxide generation rate per min/mg using p-tyramine as substrate at 200 uM preincubated for 30 mins by Amplex Red assay relative to control
[9] = target: T1, Amine oxidase [flavin-containing] B; test: Activity at recombinant human MAO-B expressed in baculovirus infected BT1 cells assessed as hydrogen peroxide generation rate per min/mg using benzylamine as substrate at 200 uM preincubated for 30 mins by Amplex Red assay relative to control
[10] = target: T2, Amine oxidase [flavin-containing] A; test: Ratio of relative Vmax to Km for recombinant human MAO-A expressed in baculovirus infected BT1 cells assessed as hydrogen peroxide generation rate using p-tyramine as substrate at 200 uM preincubated for 30 mins by Amplex Red assay
[11] = target: T1, Amine oxidase [flavin-containing] B; test: Activity at recombinant human MAO-B expressed in baculovirus infected BT1 cells assessed as hydrogen peroxide generation rate preincubated for 30 mins by Amplex Red assay relative to control
[12] = target: T1, Amine oxidase [flavin-containing] B; test: Ratio of relative Vmax to Km for recombinant human MAO-B expressed in baculovirus infected BT1 cells assessed as hydrogen peroxide generation rate preincubated for 30 mins by Amplex Red assay; details: 0.5 h
[13] = target: T2, Amine oxidase [flavin-containing] A; test: Activity at recombinant human MAO-A expressed in baculovirus infected BT1 cells assessed as hydrogen peroxide generation rate preincubated for 30 mins by Amplex Red assay relative to control
[14] = target: T2, Amine oxidase [flavin-containing] A; test: Ratio of relative Vmax to Km for recombinant human MAO-A expressed in baculovirus infected BT1 cells assessed as hydrogen peroxide generation rate preincubated for 30 mins by Amplex Red assay; details: 0.5 h
[15] = Cytotoxicity against human SH-SY5Y cells after 24 hrs by Annexin V-PE-based flow cytometry; assay type: cell-based; details: for IC50: Homo sapiens, SH-SY5Y; for Activity: human, sh-sy5y
[16] = target: T1, Amine oxidase [flavin-containing] B; test: Activity at recombinant human MAO-B expressed in baculovirus infected BT1 cells assessed as hydrogen peroxide generation rate preincubated for 30 mins by Amplex Red assay
[17] = target: T2, Amine oxidase [flavin-containing] A; test: Activity at recombinant human MAO-A expressed in baculovirus infected BT1 cells assessed as hydrogen peroxide generation rate preincubated for 30 mins by Amplex Red assay; details: 0.5 h
[18] = target: T1, Amine oxidase [flavin-containing] B; test: Activity at recombinant human MAO-B expressed in baculovirus infected BT1 cells assessed as hydrogen peroxide generation rate using benzylamine as substrate at 500 uM preincubated for 30 mins by Amplex Red assay relative to control
[19] = target: T1, Amine oxidase [flavin-containing] B; test: Ratio of relative Vmax to Km for recombinant human MAO-B expressed in baculovirus infected BT1 cells assessed as hydrogen peroxide generation rate using benzylamine as substrate at 500 uM preincubated for 30 mins by Amplex Red assay
[20] = target: T1, Amine oxidase [flavin-containing] B; test: Activity at recombinant human MAO-B expressed in baculovirus infected BT1 cells assessed as hydrogen peroxide generation rate using benzylamine as substrate at 500 uM preincubated for 30 mins by Amplex Red assay
[21] = target: T2, Amine oxidase [flavin-containing] A; test: Activity at recombinant human MAO-A expressed in baculovirus infected BT1 cells assessed as hydrogen peroxide generation rate using p-tyramine as substrate at 500 uM preincubated for 30 mins by Amplex Red assay relative to control
[22] = target: T2, Amine oxidase [flavin-containing] A; test: Ratio of relative Vmax to Km for recombinant human MAO-A expressed in baculovirus infected BT1 cells assessed as hydrogen peroxide generation rate using p-tyramine as substrate at 500 uM preincubated for 30 mins by Amplex Red assay
[23] = target: T2, Amine oxidase [flavin-containing] A; test: Activity at recombinant human MAO-A expressed in baculovirus infected BT1 cells assessed as hydrogen peroxide generation rate using p-tyramine as substrate at 500 uM preincubated for 30 mins by Amplex Red assay
[24] = target: T2, Amine oxidase [flavin-containing] A; test: Inhibition of recombinant human MAO-A expressed in baculovirus infected BT1 cells assessed as residual activity using p-tyramine as substrate at 50 uM at 37 degC
[25] = target: T2, Amine oxidase [flavin-containing] A; test: Inhibition of recombinant human MAO-A expressed in baculovirus infected BT1 cells assessed as residual activity using p-tyramine as substrate at 50 uM at 25 degC
[26] = target: T2, Amine oxidase [flavin-containing] A; test: Competitive inhibition of MAOA in human SH-SY5Y cells using p-tyramine as substrate preincubated for 5 mins by Lineweaver-Burk plot analysis; assay type: cell-based
[27] = target: T2, Amine oxidase [flavin-containing] A; test: Inhibition of recombinant human MAO-A expressed in baculovirus infected BT1 cells assessed as residual activity using p-tyramine as substrate at 100 uM after 10 mins; details: read-out: Activity
[28] = target: T2, Amine oxidase [flavin-containing] A; test: Inhibition of recombinant human MAO-A expressed in baculovirus infected BT1 cells assessed as residual activity using p-tyramine as substrate at 100 uM preincubated for 24 hrs measured after 10 mins; details: read-out: Activity
[29] = target: T2, Amine oxidase [flavin-containing] A; test: Inhibition of recombinant human MAO-A expressed in baculovirus infected BT1 cells using p-tyramine as substrate at 20 to 240 uM by Lineweaver-Burk plot analysis
[30] = target: T2, Amine oxidase [flavin-containing] A; test: Inhibition of recombinant human MAO-A expressed in baculovirus infected BT1 cells using p-tyramine as substrate after 20 to 80 mins by Lineweaver-Burk plot analysis
[31] = target: T1, Amine oxidase [flavin-containing] B; test: biochemical; assay type: cell-based
[32] = target: T2, Amine oxidase [flavin-containing] A; test: Irreversible inhibition of recombinant human MAO-A expressed in baculovirus infected BT1 cells using p-tyramine as substrate by Lineweaver-Burk plot analysis

C=CCN=C=S [ALLYL ISOTHIOCYANATE]
fold change (FC) [1]: 0.98
fold change (FC) [2]: 1

c1ccc(CNCCCCCCCCCCCCNCc2ccccc2)cc1
Ki [3]: 129 µM
Ki [4]: 1050 µM
Ki [5]: 186 µM
Ki [6]: 55 µM
fold change (FC) [7]: 0.37
fold change (FC) [8]: 0.52
fold change (FC) [9]: 0.62
fold change (FC) [10]: 0.29

CN(CCCCCCCCCCCCN)Cc1ccccc1
fold change (FC) [11]: 0.24
fold change (FC) [12]: 17.5
fold change (FC) [13]: 0.03
fold change (FC) [14]: 0.6

NCCCCCCCCCCCCNCc1cccs1
fold change (FC) [11]: 0.53
fold change (FC) [12]: 12
fold change (FC) [13]: 0.1
fold change (FC) [14]: 0.29

NCCCCCCCCCCCCNCc1ccccc1
IC50 [15]: 327 µM
Activity [15]: Dose-dependent effect
fold change (FC) [11]: 1
fold change (FC) [12]: 18.6
fold change (FC) [13]: 0.08
fold change (FC) [14]: 0.4

C[S+]([O-])CCCCN=C=S (stereo not drawn) [SULFORAPHANE]
IC50 [15]: 20 µM
fold change (FC) [1]: 1.01
fold change (FC) [2]: 0.78

NCCCNCCCCNCCCNCc1cccs1
Ki [3]: 23 µM
Ki [4]: 414 µM
Ki [5]: 997 µM
Ki [6]: 226 µM
fold change (FC) [7]: 0.05
fold change (FC) [8]: 0.52
fold change (FC) [9]: 0.63
Activity [16]: Not Active
fold change (FC) [10]: 0.57
Activity [17]: Not Active

NCCCNCCCCNCCCN [SPERMINE]
fold change (FC) [7]: 0.76
fold change (FC) [8]: 0.77
fold change (FC) [9]: 0.98
fold change (FC) [10]: 0.86

NCCCNCCCCNCCCNCc1ccccc1
Ki [3]: 291 µM
Ki [4]: 785 µM
Ki [5]: 188 µM
Ki [6]: 170 µM
fold change (FC) [7]: 0.66
fold change (FC) [8]: 0.48
fold change (FC) [9]: 0.97
fold change (FC) [10]: 0.38

NCCCNCCCCNCCCNCc1ccc2ccccc2c1
fold change (FC) [7]: 0.91
fold change (FC) [8]: 0.52
fold change (FC) [9]: 0.81
Activity [16]: Not Active
fold change (FC) [10]: 0.62
Activity [17]: Not Active

NCCCOCCCCOCCCNCc1cccs1
fold change (FC) [11]: 0.19
fold change (FC) [12]: 0.21
fold change (FC) [14]: 0.06
Km [17]: > 1200 µM

NCCCCCCCCNCCCNCc1cccs1
fold change (FC) [7]: 0.75
fold change (FC) [18]: < 0.01
fold change (FC) [19]: < 0.01
Km [20]: < 0.01 µM
fold change (FC) [21]: < 0.01
fold change (FC) [22]: < 0.01
Km [23]: < 0.01 µM
fold change (FC) [8]: 0.96
fold change (FC) [9]: 0.71
fold change (FC) [10]: 0.69

CN(CCCCCCCCCCCCN=C=S)Cc1ccccc1
IC50 [15]: 180 µM
Activity [15]: Dose-dependent effect
fold change (FC) [1]: 0.2
fold change (FC) [2]: 0.22
kinact [24]: 0.00075 s⁻¹
kinact [25]: 0.0002 s⁻¹
Ki [26]: 4.9 µM
activity at 100 µM [27]: 64%
activity at 100 µM [28]: 100%
inhibition (INH) [29]: Dose-dependent effect
inhibition (INH) [30]: Dose-dependent effect
Ki [31]: 9 µM
Ki [32]: 5 µM

NCCCNCCCCNCCCNCc1cccnc1
fold change (FC) [7]: 0.72
fold change (FC) [8]: 0.52
fold change (FC) [9]: 0.93
Activity [16]: Not Active
fold change (FC) [10]: 0.72
Activity [17]: Not Active
